Test results: patent US8821850B2, “Protein-polymer-drug conjugates” (Mersana Therapeutics, Inc., priority 2011, dated 2014)
Like-named read-outs stand apart in the source and are kept apart here. Square brackets hold non-standard residues; d marks the D form. Peptide text beside a SMILES is read from it. * marks the point of attachment. Dolaproine = CO[C@@H]([C@@H]1CCCN1)[C@@H](C)C(=O)O; Dil = CC[C@H](C)[C@H](NC)[C@@H](CC(=O)O)OC; NMe2Val = CC(C)[C@@H](C(=O)*)N(C)C; X1 = C[C@H](N)C(=O)OCCCN*

Key:
Type in all cases: cell-based
[1] = system: HER2 expressing cells BT474; assay: Cell viability assay (Cell Titer-Glo), BT474; conditions: read-out: BT474 IC50
Description: (§1) PBRM-drug polymer conjugates were evaluated for their tumor viability using Cell Titer-Glo (Promega Corp). Cells were plated in black walled 96-well plate and allowed to adhere overnight at 37° C. in a humidified atmosphere of 5% CO2. HER2 expressing cells SKBR3, BT474, NCI-N87 and cells expressing low levels of HER2-MCF7 were plated at a density of 5,000 cells per well. The next day the medium was replaced with 50 μL fresh medium and 50 μL of 2× stocks of PBRM-drug polymer conjugate, drug polymer conjugate or drug were added to appropriate wells, mixed and incubated for 72 h. Cell Titer-Glo reagent was added to the wells at room temperature and the luminescent signal was measured after 10 min using a SpectraMax M5 plate reader (Molecular Devices). Dose response curves were generated using SoftMax Pro software. IC50 values were determined from four-parameter curve fitting.

[2] = system: HER2 expressing cells SKBR3; assay: Cell viability assay (Cell Titer-Glo), SKBR3
Description: as §1

[3] = system: cells expressing low levels of HER2-MCF7; assay: Cell viability assay (Cell Titer-Glo), MCF7
Description: as §1

[4] = system: HER2 expressing cells NCI-N87; assay: Cell viability assay (Cell Titer-Glo), NCI-N87; conditions: read-out: N87 IC50
Description: as §1

[5] = Homo sapiens, MCF7, 72 h, read-out: MCF7 IC50, Table II
[6] = Table XII, 72 h, conjugates with PBRM MW<80 kDa, read-out: SKBR3 IC50
[7] = Table XII, 72 h, conjugates with PBRM MW<80 kDa, read-out: MCF7 IC50
[8] = Table XIII, 72 h, conjugates with high drug loading
[9] = Table XIII, 72 h, conjugates with high drug loading, read-out: MCF7 IC50
[10] = Table XIII, 72 h, conjugates with high drug loading, read-out: SKBR3 IC50

| Molecule | IC50 ([1]; Homo sapiens, BT-474, 72 h) [nM] | IC50 [1, 8] [nM] | IC50 [4, 8] [nM] | IC50 [3, 9] [nM] | IC50 [2, 10] [nM] | also measured |
| --- | --- | --- | --- | --- | --- | --- |
| CCC1(O)C[C@H]2C[N@](CCc3c([nH]c4ccccc34)[C@@](C(=O)OC)(c3cc4c(cc3OC)N(C)C3C45CCN4CC=C[C@](CC)(C45)[C@@H](O)[C@]3(O)C(=O)NC[C@@H](C)O)C2)C1 (stereo partly drawn) [Example 23, (R)-2HPV] | 0.39 | – | – | – | – | IC50 ([2]; Homo sapiens, SK-BR-3, 72 h, read-out: SKBR3 IC50, Table II): 0.71 nM; IC50 [3, 5]: 1.71 nM |
| CC[C@H](C)[C@@H]([C@@H](CC(=O)N1CCC[C@H]1[C@H](OC)[C@@H](C)C(=O)N[C@@H](Cc1ccccc1)C(=O)NCCCOC(=O)[C@H](C)N)OC)N(C)C(=O)[C@@H](NC(=O)[C@H](C(C)C)N(C)C)C(C)C [Example 50, AF HPA-L-Alanine] (NMe2Val-V[Dil][Dolaproine]F-X1) | 0.85 | – | – | – | – | IC50 ([2]; Homo sapiens, SK-BR-3, 72 h, read-out: SKBR3 IC50, Table XIII, conjugates with high drug loading): 0.32 nM; IC50 ([4]; Homo sapiens, NCI-N87, 72 h): 1.6 nM; IC50 ([3]; Homo sapiens, MCF7, 72 h, read-out: MCF7 IC50, Table XIII, conjugates with high drug loading): 8.5 nM; IC50 ([3]; read-out: MCF7 IC50, Table XIII, 72 h, conjugates with high drug loading): 8.2 nM |
| 105 kDa PHF-BA (AF HPA-L-Alanine)-SS-(Trastuzumab-Fab′) [Example 96 Conjugate A] | – | – | – | – | – | IC50 [2, 6]: 0.6 nM; IC50 [3, 7]: > 100 nM |
| CCC1(O)C[C@H]2C[N@](CCc3c([nH]c4ccccc34)[C@@](C(=O)OC)(c3cc4c(cc3OC)N(C)C3C45CCN4CC=C[C@](CC)(C45)[C@@H](O)[C@]3(O)C(=O)NC[C@H](C)O)C2)C1 (stereo partly drawn) [Example 22, (S)-2HPV] | 0.41 | – | – | – | – | IC50 [3, 5]: 1.83 nM |
| 156 kDa PHF-BA (AF HPA-L-Alanine)-SS-(Trastuzumab-Fab′) [Example 96 Conjugate B] | – | – | – | – | – | IC50 [2, 6]: 1 nM; IC50 [3, 7]: > 100 nM |
| 22 kDa PHF-BA-(AF HPA)-SS-Rituximab [Example 94, Conjugate C] | – | 2.82 | 5.84 | 4.17 | – | – |
| 22 kDa PHF-BA-(AF HPA-L-Alanine)-SS-Trastuzumab [Example 94, Conjugate A] | – | 0.05 | 0.12 | 9.5 | 0.008 | – |
| 47 kDa PHF-BA-(AF HPA-L-Alanine)-SS-Trastuzumab [Example 94, Conjugate B] | – | < 0.05 | ~0.3 | 7.4 | < 0.05 | – |
| 47 kDa PHF-BA-(AF HPA-L-Alanine)-SS-Rituximab [Example 94, Conjugate D] | – | 1.1 | 10.9 | 8.8 | 0.26 | – |
